Organism: Rattus norvegicus
Test: Open TG-GATES - Regimen: Daily Repeat
Assay type: toxicity, organism-based, Sprague-Dawley
Parameters: regimen Daily Repeat, gender Male, age 6 weeks
Conditions: in vivo, po, route gavage; for APTT / Bas / Eos / Fbg / Hb / Ht / Lym / MCH / MCHC / MCV / Mono / Neu / PT / Plat / RBC / Ret / WBC: tissue Blood; for KIDNEY_L / KIDNEY_R / KIDNEY_TOTAL: tissue Kidney; for LIVER: tissue Liver; for A/G / ALP / ALT / AST / BUN / CRE / Ca / Cl / DBIL / GLC / IP / LDH / Na / PL / RALB / TBIL / TC / TG / TP / gamma-GTP: tissue Plasma
[1] = 300 mg/kg, 72 h, dose level Middle, time 3 day
[2] = 300 mg/kg, […], dose level Middle, time 7 day
[3] = 300 mg/kg, […], dose level Middle, time 14 day
[4] = 300 mg/kg, […], dose level Middle, time 28 day
[5] = 1000 mg/kg, 72 h, dose level High, time 3 day
[6] = 1000 mg/kg, […], dose level High, time 7 day
[7] = 1000 mg/kg, […], dose level High, time 14 day
[8] = 1000 mg/kg, […], dose level High, time 28 day

NC(N)=Nc1nc(CSCCC(N)=NS(N)(=O)=O)cs1 [FAMOTIDINE]
TERMINAL_BW [1]: 225.8 g
APTT [1]: 21.2 s
Bas [1]: 0%
Eos [1]: 1%
Fbg [1]: 222 mg/dL
Hb [1]: 13.6 g/dL
Ht [1]: 37.4%
Lym [1]: 82%
MCH [1]: 23 pg
MCHC [1]: 36.3%
MCV [1]: 63.4 fL
Mono [1]: 2.6%
Neu [1]: 13.2%
PT [1]: 12 s
Plat [1]: 127.7 x10_4/uL
RBC [1]: 589.8 x10_4/ul
Ret [1]: 5.1%
WBC [1]: 106.3 x10_2/uL
KIDNEY_L [1]: 1 g
KIDNEY_R [1]: 1 g
KIDNEY_TOTAL [1]: 2 g
LIVER [1]: 10.4 g
A/G [1]: 1.7
ALP [1]: 998.8 IU/L
ALT [1]: 33.6 IU/L
AST [1]: 65 IU/L
BUN [1]: 14.4 mg/dL
CRE [1]: 0.4 mg/dL
Ca [1]: 10.9 mg/dL
Cl [1]: 102.6 meq/L
DBIL [1]: 0.082 mg/dL
GLC [1]: 186.2 mg/dL
IP [1]: 7.8 mg/dL
LDH [1]: 194.2 IU/L
Na [1]: 139.2 meq/L
PL [1]: 141.4 mg/dL
RALB [1]: 3.5 g/dL
TBIL [1]: 0.1 mg/dL
TC [1]: 76.2 mg/dL
TG [1]: 77.6 mg/dL
TP [1]: 5.6 g/dL
gamma-GTP [1]: 1.2 IU/L
TERMINAL_BW [2]: 261.1 g
TERMINAL_BW [3]: 316.2 g
TERMINAL_BW [4]: 394.2 g
APTT [2]: 20.3 s
Bas [2]: 0%
Eos [2]: 1%
Fbg [2]: 225 mg/dL
Hb [2]: 13.9 g/dL
Ht [2]: 38.8%
Lym [2]: 79.2%
MCH [2]: 22.1 pg
MCHC [2]: 35.8%
MCV [2]: 61.7 fL
Mono [2]: 2.2%
Neu [2]: 16%
PT [2]: 12 s
Plat [2]: 114.6 x10_4/uL
RBC [2]: 629.6 x10_4/ul
Ret [2]: 5.2%
WBC [2]: 85.9 x10_2/uL
APTT [3]: 19.7 s
Bas [3]: 0%
Eos [3]: 0.8%
Fbg [3]: 224 mg/dL
Hb [3]: 14.4 g/dL
Ht [3]: 42%
Lym [3]: 79%
MCH [3]: 20.9 pg
MCHC [3]: 34.3%
MCV [3]: 60.9 fL
Mono [3]: 2.8%
Neu [3]: 16%
PT [3]: 12.4 s
Plat [3]: 120.5 x10_4/uL
RBC [3]: 689.4 x10_4/ul
Ret [3]: 4.3%
WBC [3]: 117 x10_2/uL
APTT [4]: 20.2 s
Bas [4]: 0%
Eos [4]: 1.4%
Fbg [4]: 220.6 mg/dL
Hb [4]: 15.4 g/dL
Ht [4]: 43.3%
Lym [4]: 82.2%
MCH [4]: 20 pg
MCHC [4]: 35.4%
MCV [4]: 56.4 fL
Mono [4]: 1.6%
Neu [4]: 13.4%
PT [4]: 12.5 s
Plat [4]: 100.3 x10_4/uL
RBC [4]: 768.2 x10_4/ul
Ret [4]: 2.3%
WBC [4]: 116.4 x10_2/uL
KIDNEY_L [2]: 1.2 g
KIDNEY_R [2]: 1.1 g
KIDNEY_TOTAL [2]: 2.3 g
KIDNEY_L [3]: 1.2 g
KIDNEY_R [3]: 1.2 g
KIDNEY_TOTAL [3]: 2.4 g
KIDNEY_L [4]: 1.4 g
KIDNEY_R [4]: 1.4 g
KIDNEY_TOTAL [4]: 2.8 g
LIVER [2]: 12.6 g
LIVER [3]: 13.4 g
LIVER [4]: 14.9 g
A/G [2]: 1.5
ALP [2]: 921.4 IU/L
ALT [2]: 34.2 IU/L
AST [2]: 65.2 IU/L
BUN [2]: 15.6 mg/dL
CRE [2]: 0.4 mg/dL
Ca [2]: 10.8 mg/dL
Cl [2]: 103.4 meq/L
DBIL [2]: 0.092 mg/dL
GLC [2]: 192.8 mg/dL
IP [2]: 7.6 mg/dL
LDH [2]: 183.4 IU/L
Na [2]: 141.4 meq/L
PL [2]: 161 mg/dL
RALB [2]: 3.4 g/dL
TBIL [2]: 0.1 mg/dL
TC [2]: 83.8 mg/dL
TG [2]: 111.4 mg/dL
TP [2]: 5.7 g/dL
gamma-GTP [2]: 1.4 IU/L
A/G [3]: 1.6
ALP [3]: 907.6 IU/L
ALT [3]: 40.2 IU/L
AST [3]: 66 IU/L
BUN [3]: 16 mg/dL
CRE [3]: 0.5 mg/dL
Ca [3]: 10.6 mg/dL
Cl [3]: 103.2 meq/L
DBIL [3]: 0.1 mg/dL
GLC [3]: 208.2 mg/dL
IP [3]: 7.3 mg/dL
LDH [3]: 151.6 IU/L
Na [3]: 140.2 meq/L
PL [3]: 146.6 mg/dL
RALB [3]: 3.5 g/dL
TBIL [3]: 0.2 mg/dL
TC [3]: 76 mg/dL
TG [3]: 97.4 mg/dL
TP [3]: 5.7 g/dL
gamma-GTP [3]: 2.2 IU/L
A/G [4]: 1.3
ALP [4]: 609.6 IU/L
ALT [4]: 35.2 IU/L
AST [4]: 66.8 IU/L
BUN [4]: 16.6 mg/dL
CRE [4]: 0.5 mg/dL
Ca [4]: 10.4 mg/dL
Cl [4]: 103.4 meq/L
DBIL [4]: 0.072 mg/dL
GLC [4]: 217.8 mg/dL
IP [4]: 7 mg/dL
LDH [4]: 160.6 IU/L
Na [4]: 141 meq/L
PL [4]: 133 mg/dL
RALB [4]: 3.3 g/dL
TBIL [4]: 0.1 mg/dL
TC [4]: 68.6 mg/dL
TG [4]: 86.2 mg/dL
TP [4]: 5.9 g/dL
gamma-GTP [4]: 1 IU/L
TERMINAL_BW [5]: 226 g
APTT [5]: 19.5 s
Bas [5]: 0%
Eos [5]: 1%
Fbg [5]: 226.2 mg/dL
Hb [5]: 13.2 g/dL
Ht [5]: 36.9%
Lym [5]: 79%
MCH [5]: 21.9 pg
MCHC [5]: 36%
MCV [5]: 60.8 fL
Mono [5]: 2.6%
Neu [5]: 14.4%
PT [5]: 11.9 s
Plat [5]: 126.7 x10_4/uL
RBC [5]: 607 x10_4/ul
Ret [5]: 4.4%
WBC [5]: 84.8 x10_2/uL
KIDNEY_L [5]: 1 g
KIDNEY_R [5]: 1 g
KIDNEY_TOTAL [5]: 2 g
LIVER [5]: 10.4 g
A/G [5]: 1.5
ALP [5]: 917.2 IU/L
ALT [5]: 32.8 IU/L
AST [5]: 60.4 IU/L
BUN [5]: 15.4 mg/dL
CRE [5]: 0.4 mg/dL
Ca [5]: 10.8 mg/dL
Cl [5]: 104.2 meq/L
DBIL [5]: 0.088 mg/dL
GLC [5]: 179.4 mg/dL
IP [5]: 7.7 mg/dL
LDH [5]: 185.8 IU/L
Na [5]: 141.2 meq/L
PL [5]: 137.8 mg/dL
RALB [5]: 3.3 g/dL
TBIL [5]: 0.1 mg/dL
TC [5]: 77.6 mg/dL
TG [5]: 79.6 mg/dL
TP [5]: 5.5 g/dL
gamma-GTP [5]: 1 IU/L
TERMINAL_BW [6]: 262.1 g
TERMINAL_BW [7]: 322.6 g
TERMINAL_BW [8]: 376.8 g
APTT [6]: 21.5 s
Bas [6]: 0%
Eos [6]: 1.2%
Fbg [6]: 223.4 mg/dL
Hb [6]: 13.6 g/dL
Ht [6]: 38.2%
Lym [6]: 75%
MCH [6]: 21.5 pg
MCHC [6]: 35.5%
MCV [6]: 60.3 fL
Mono [6]: 2.8%
Neu [6]: 19.6%
PT [6]: 12.1 s
Plat [6]: 122.6 x10_4/uL
RBC [6]: 634.4 x10_4/ul
Ret [6]: 5.5%
WBC [6]: 107.5 x10_2/uL
APTT [7]: 23.4 s
Bas [7]: 0%
Eos [7]: 0.8%
Fbg [7]: 228 mg/dL
Hb [7]: 13.9 g/dL
Ht [7]: 40.7%
Lym [7]: 76.8%
MCH [7]: 21.2 pg
MCHC [7]: 34.2%
MCV [7]: 62 fL
Mono [7]: 2.2%
Neu [7]: 18.6%
PT [7]: 12.5 s
Plat [7]: 117.7 x10_4/uL
RBC [7]: 656.2 x10_4/ul
Ret [7]: 4.8%
WBC [7]: 111.7 x10_2/uL
APTT [8]: 21.5 s
Bas [8]: 0%
Eos [8]: 1.2%
Fbg [8]: 222.2 mg/dL
Hb [8]: 15.7 g/dL
Ht [8]: 44.1%
Lym [8]: 84.8%
MCH [8]: 19.7 pg
MCHC [8]: 35.6%
MCV [8]: 55.4 fL
Mono [8]: 1.4%
Neu [8]: 11%
PT [8]: 12.5 s
Plat [8]: 100.2 x10_4/uL
RBC [8]: 796.6 x10_4/ul
Ret [8]: 1.9%
WBC [8]: 114.1 x10_2/uL
KIDNEY_L [6]: 1.2 g
KIDNEY_R [6]: 1.2 g
KIDNEY_TOTAL [6]: 2.4 g
KIDNEY_L [7]: 1.3 g
KIDNEY_R [7]: 1.3 g
KIDNEY_TOTAL [7]: 2.6 g
KIDNEY_L [8]: 1.3 g
KIDNEY_R [8]: 1.3 g
KIDNEY_TOTAL [8]: 2.7 g
LIVER [6]: 12.2 g
LIVER [7]: 14 g
LIVER [8]: 14.6 g
A/G [6]: 1.5
ALP [6]: 987.2 IU/L
ALT [6]: 36.6 IU/L
AST [6]: 69.8 IU/L
BUN [6]: 14.6 mg/dL
CRE [6]: 0.4 mg/dL
Ca [6]: 10.8 mg/dL
Cl [6]: 103.6 meq/L
DBIL [6]: 0.088 mg/dL
GLC [6]: 183.6 mg/dL
IP [6]: 7.3 mg/dL
LDH [6]: 184 IU/L
Na [6]: 140.8 meq/L
PL [6]: 147.6 mg/dL
RALB [6]: 3.4 g/dL
TBIL [6]: 0.1 mg/dL
TC [6]: 79 mg/dL
TG [6]: 69.4 mg/dL
TP [6]: 5.6 g/dL
gamma-GTP [6]: 1 IU/L
A/G [7]: 1.5
ALP [7]: 838 IU/L
ALT [7]: 36.6 IU/L
AST [7]: 64.6 IU/L
BUN [7]: 16.4 mg/dL
CRE [7]: 0.5 mg/dL
Ca [7]: 10.8 mg/dL
Cl [7]: 103.4 meq/L
DBIL [7]: 0.078 mg/dL
GLC [7]: 196.6 mg/dL
IP [7]: 7.4 mg/dL
LDH [7]: 162 IU/L
Na [7]: 140.6 meq/L
PL [7]: 134.8 mg/dL
RALB [7]: 3.6 g/dL
TBIL [7]: 0.1 mg/dL
TC [7]: 72.4 mg/dL
TG [7]: 66.8 mg/dL
TP [7]: 5.9 g/dL
gamma-GTP [7]: 1.6 IU/L
A/G [8]: 1.3
ALP [8]: 722.6 IU/L
ALT [8]: 36.2 IU/L
AST [8]: 62.4 IU/L
BUN [8]: 17.4 mg/dL
CRE [8]: 0.6 mg/dL
Ca [8]: 10.3 mg/dL
Cl [8]: 102.8 meq/L
DBIL [8]: 0.076 mg/dL
GLC [8]: 220 mg/dL
IP [8]: 7 mg/dL
LDH [8]: 132.6 IU/L
Na [8]: 141.6 meq/L
PL [8]: 121.2 mg/dL
RALB [8]: 3.4 g/dL
TBIL [8]: 0.1 mg/dL
TC [8]: 62.4 mg/dL
TG [8]: 72.2 mg/dL
TP [8]: 6 g/dL
gamma-GTP [8]: 1.4 IU/L

Reference: ChEMBL document CHEMBL3885861, “Open TG-GATES”
